{"source": "patent US10160705B2", "about": "“Class of HDAC inhibitors expands the renal progenitor cells population and improves the rate of recovery from acute kidney injury” (University of Pittsburgh—Of the Commonwealth System of …, priority 2011, dated 2018)", "system": "renal progenitor cells", "assay": "In situ hybridization for lhx1a expression in 10-somite embryos (renal progenitor cell expansion); as to Lhx1a expansion caused by analog treatment, 3 μM: key: effective (+); partially effective (+/−); ineffective (−); Analogs that killed all embryos at a given concentration before reaching 10 somites are listed as XX; as to Lhx1a expansion caused by analog treatment, 800 nM: key: effective (+); partially effective (+/−); ineffective (−); Analogs that killed all embryos at a given concentration before reaching 10 somites are listed as XX", "type": "in vivo", "how_it_was_run": "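Zebrafish embryos treated with compound, then colorimetric whole-mount in situ hybridization (65° C) for lhx1a mRNA at 10 somites. Embryos with expanded kidney field counted manually as percent of total. EC50 taken as 50% point of percent-expansion trendline; compounds also classed effective, partial or ineffective versus PTBA at matched concentration.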", "note": "Where two headings read alike, the source gives them in different places."}
{"smiles": "O=C(O)CCCSc1ccccc1", "note": "[UPHD-00020, 4-(phenylthio)butanoic acid (PTBA)]", "values": [{"measurement": "Lhx1a expansion caused by analog treatment, 800 nM", "setting": "800 nM from 2 hpf, 10-somite embryos", "value": "+/−"}, {"measurement": "Lhx1a expansion caused by analog treatment, 1.5 μM", "setting": "1.5 μM from 2 hpf, 10-somite embryos", "value": "+"}, {"measurement": "Lhx1a expansion caused by analog treatment, 3 μM", "setting": "3 μM from 2 hpf, 10-somite embryos", "value": "+"}, {"measurement": "responders at 1.5 µM", "setting": "Danio rerio, 1.5 μM from 2 hpf, 10-somite embryos, read-out: lhx1a expansion, percent of treated embryos", "value": 83, "unit": "%"}, {"measurement": "responders at 3 µM", "setting": "Danio rerio, 3 μM PTBA added at 8 hpf after 0.5% DMSO at 5 hpf (HUA study), read-out: lhx1a expansion, percent of treated embryos", "value": 97, "unit": "%"}, {"measurement": "responders at 3 µM", "setting": "Danio rerio, 3 μM PTBA together with HUA (hydroxyurea and aphidicolin), read-out: lhx1a expansion, percent of treated embryos", "value": 13, "unit": "%"}, {"measurement": "responders at 3 µM", "setting": "Danio rerio, 3 μM from 2 hpf, 10-somite embryos, read-out: lhx1a expansion, percent of treated embryos", "value": 95, "unit": "%"}, {"measurement": "responders at 3 µM", "setting": "Danio rerio, embryos injected with 200 pg DN-RARα mRNA, 3 μM PTBA from 5 hpf, read-out: lhx1a expansion, percent of treated embryos", "value": 19, "unit": "%"}, {"measurement": "responders at 3 µM", "setting": "Danio rerio, mock-injected embryos, 3 μM PTBA from 5 hpf, read-out: lhx1a expansion, percent of treated embryos", "value": 90, "unit": "%"}, {"measurement": "responders at 0.2 µM", "setting": "Danio rerio, percent of embryos with expanded kidney field, 200 nM, read-out: Expansion of Cells (including repeats* and recounts**) 200 nM", "value": 10, "unit": "%"}, {"measurement": "responders at 0.4 µM", "setting": "Danio rerio, percent of embryos with expanded kidney field, 400 nM, read-out: Expansion of Cells (including repeats* and recounts**) 400 nM", "value": 10, "unit": "%"}, {"measurement": "responders at 3 µM", "setting": "Danio rerio, percent of embryos with expanded kidney field, 3 μM, read-out: Expansion of Cells (including repeats* and recounts**) 3 μM", "value": 100, "unit": "%"}, {"measurement": "EC50", "setting": "Danio rerio, first pass EC50 from percent expansion (Excel trendline), average where several experiments", "value": 1.4, "unit": "µM"}]}
